Values joined by “and” are separate entries in the source; they are usually repeats but may differ in a detail not shown here. Identical values can stand only once. Toxic doses and inconclusive results are not listed. Square brackets hold non-standard residues; d marks the D form. Peptide text beside a SMILES is read from it. * marks the point of attachment. ONb = O=[N+]([O-])c1ccc(CO*)cc1; Cbz = O=C(OCc1ccccc1)*; Nva = CCC[CH](N)C(=O)O; Bn = c1ccc(C*)cc1
Tested on: L1210 leukemia ip in BDF1 mice, survival T/C
Assay: NCI In Vivo Anticancer Drug Screen. Data for tumor model L1210 Leukemia (intraperitoneal) in B6D2F1 (BDF1) mice
Details: endpoint: mean survival time, higher = longer survival
Procedure, shortened: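 In this screen, tumor-bearing mice given compound are compared to those given vehicle, and their survival values are reported as a treated-to-control quotient.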

[1] = dose: 12.5 mg/kg/injection, schedule: Q01DX001 (ip), vehicle: Klucel (hydroxypropylcellulose) (HPC)
[2] = dose: 25.0 mg/kg/injection, schedule: Q01DX001 (ip), vehicle: Klucel (hydroxypropylcellulose) (HPC)
[3] = dose: 25.0 mg/kg/injection, schedule: Q01DX009 (ip), vehicle: saline
[4] = dose: 50.0 mg/kg/injection, schedule: Q01DX001 (ip), vehicle: Klucel (hydroxypropylcellulose) (HPC)
[5] = dose: 100.0 mg/kg/injection, schedule: Q04DX003 (ip), vehicle: saline
[6] = dose: 100.0 mg/kg/injection, schedule: Q04DX003 (ip), vehicle: Klucel (hydroxypropylcellulose) (HPC)
[7] = dose: 200.0 mg/kg/injection, schedule: Q04DX003 (ip), vehicle: Klucel (hydroxypropylcellulose) (HPC)
[8] = dose: 400.0 mg/kg/injection, schedule: Q04DX003 (ip), vehicle: Klucel (hydroxypropylcellulose) (HPC)
[9] = dose: 100.0 mg/kg/injection, schedule: Q01DX009 (ip), vehicle: Klucel (hydroxypropylcellulose) (HPC)
[10] = dose: 200.0 mg/kg/injection, schedule: Q01DX009 (ip), vehicle: Klucel (hydroxypropylcellulose) (HPC)
[11] = dose: 400.0 mg/kg/injection, schedule: Q01DX009 (ip), vehicle: Klucel (hydroxypropylcellulose) (HPC)
[12] = dose: 100.0 mg/kg/injection, schedule: Q04DX002 (ip), vehicle: saline with Tween-80
[13] = dose: 200.0 mg/kg/injection, schedule: Q04DX002 (ip), vehicle: saline with Tween-80
[14] = dose: 400.0 mg/kg/injection, schedule: Q04DX002 (ip), vehicle: saline with Tween-80
[15] = dose: 100.0 mg/kg/injection, schedule: Q04DX003 (ip), vehicle: saline with Tween-80
[16] = dose: 200.0 mg/kg/injection, schedule: Q04DX003 (ip), vehicle: saline with Tween-80
[17] = dose: 200.0 mg/kg/injection, schedule: Q01DX001 (ip), vehicle: saline
[18] = dose: 50.0 mg/kg/injection, schedule: Q01DX009 (ip), vehicle: saline with Tween-80

c1ccc2c(c1)CC1CCCCN1C2 (centres undefined)
T/C [1]: 93 % of control | T/C [2]: 98 % of control | T/C [3]: 96 % of control | T/C [4]: 93 % of control | T/C (dose: 50.0 mg/kg/injection, schedule: Q01DX009 (ip), vehicle: saline): 106 % of control | T/C [5]: 88 % of control

CCCNC(=O)c1cc(NC(=O)Nc2ccc(C3=NCCN3)cc2)cc(NC(=O)Nc2ccc(C3=NCCN3)cc2)c1
T/C (dose: 2.5 mg/kg/injection, schedule: Q01DX Z (ip), vehicle: carboxymethylcellulose (CMC)): 104 % of control | T/C (dose: 5.0 mg/kg/injection, schedule: Q01DX Z (ip), vehicle: carboxymethylcellulose (CMC)): 112 % of control | T/C (dose: 20.0 mg/kg/injection, schedule: Q01DX Z (ip), vehicle: carboxymethylcellulose (CMC)): 124 % of control | T/C (dose: 42.0 mg/kg/injection, schedule: Q01DX Z (ip), vehicle: carboxymethylcellulose (CMC)): 115 % of control

NC(=O)c1ccccc1N=NN(CCF)CCF
T/C (dose: 6.25 mg/kg/injection, schedule: Q01DX009 (ip), vehicle: Klucel (hydroxypropylcellulose) (HPC)): 120 % of control | T/C (dose: 6.25 mg/kg/injection, schedule: Q04DX003 (ip), vehicle: Klucel (hydroxypropylcellulose) (HPC)): 112 % of control | T/C (dose: 12.0 mg/kg/injection, schedule: Q04DX003 (ip), vehicle: Klucel (hydroxypropylcellulose) (HPC)): 153 % of control | T/C [1]: 106 % of control | T/C (dose: 12.5 mg/kg/injection, schedule: Q04DX003 (ip), vehicle: Klucel (hydroxypropylcellulose) (HPC)): 156 % of control | T/C [2]: 113 % of control | T/C (dose: 25.0 mg/kg/injection, schedule: Q04DX003 (ip), vehicle: Klucel (hydroxypropylcellulose) (HPC)): 104 % of control

O=C(O)c1ccc(S(=O)(=O)c2ccc(C(=O)O)cc2)cc1
T/C [6]: 103 % of control | T/C [7]: 97 % of control | T/C [8]: 88 % of control

CC(C)OB(OC(C)C)OC(C)C
T/C [9]: 103 % of control | T/C [6]: 104 % of control | T/C [10]: 103 % of control | T/C [7]: 95 % of control | T/C [11]: 102 % of control | T/C [8]: 100 % of control

O=C1OC(/C=C/c2ccccc2)=NC/1=C\c1ccc2c(c1)OCO2
T/C [12]: 92 % of control | T/C [13]: 89 % of control | T/C [14]: 92 % of control

O=c1[nH]cc(Br)c2sccc12
T/C [15]: 100 % of control | T/C [16]: 105 % of control

O=S(=O)(CC(Br)c1ccccc1)c1ccccc1 (centres undefined)
T/C (dose: 100.0 mg/kg/injection, schedule: Q01DX009 (ip), vehicle: saline): 92 % of control | T/C [5]: 101 % of control | T/C (dose: 200.0 mg/kg/injection, schedule: Q01DX009 (ip), vehicle: saline): 95 % of control | T/C (dose: 200.0 mg/kg/injection, schedule: Q04DX003 (ip), vehicle: saline): 104 % of control | T/C (dose: 400.0 mg/kg/injection, schedule: Q01DX009 (ip), vehicle: saline): 94 % of control | T/C (dose: 400.0 mg/kg/injection, schedule: Q04DX003 (ip), vehicle: saline): 97 % of control

CCCC(NC(=O)C(CSCc1ccccc1)NC(=O)OCc1ccccc1)C(=O)OCc1ccc([N+](=O)[O-])cc1 (centres undefined) (Cbz-Cys(Bn)-[Nva]-ONb; configuration not given here)
T/C (dose: 100.0 mg/kg/injection, schedule: Q01DX001 (ip), vehicle: other): 90 % of control | T/C (dose: 200.0 mg/kg/injection, schedule: Q01DX001 (ip), vehicle: other): 90 % of control | T/C (dose: 400.0 mg/kg/injection, schedule: Q01DX001 (ip), vehicle: other): 89 % of control

COc1nc2ccccc2n1C1OC(CO)C(O)C1O (centres undefined)
T/C (dose: 100.0 mg/kg/injection, schedule: Q01DX001 (ip), vehicle: saline): 97 % of control | T/C [17]: 100 % of control | T/C (dose: 400.0 mg/kg/injection, schedule: Q01DX001 (ip), vehicle: saline): 105 % of control

Cc1ccc(C)c2c(Cl)c3c(C)ccc(C)c3nc12
T/C [9]: 98 % of control | T/C (dose: 100.0 mg/kg/injection, schedule: Q04DX003 (ip), vehicle: other): 100 % of control | T/C [10]: 90 % of control | T/C (dose: 200.0 mg/kg/injection, schedule: Q04DX003 (ip), vehicle: other): 97 % of control | T/C [11]: 96 % of control | T/C (dose: 400.0 mg/kg/injection, schedule: Q04DX003 (ip), vehicle: other): 95 % of control

FC1(F)SC2CCCC2C1(F)F (centres undefined)
T/C (dose: 3.13 mg/kg/injection, schedule: Q01DX009 (ip), vehicle: saline with Tween-80): 95 % of control | T/C (dose: 6.25 mg/kg/injection, schedule: Q01DX009 (ip), vehicle: saline with Tween-80): 106 % of control | T/C (dose: 12.5 mg/kg/injection, schedule: Q01DX009 (ip), vehicle: saline with Tween-80): 95 % of control and 101 % of control | T/C (dose: 12.5 mg/kg/injection, schedule: Q04DX003 (ip), vehicle: saline with Tween-80): 101 % of control | T/C (dose: 25.0 mg/kg/injection, schedule: Q04DX003 (ip), vehicle: saline with Tween-80): 104 % of control | T/C (dose: 50.0 mg/kg/injection, schedule: Q04DX003 (ip), vehicle: saline with Tween-80): 95 % of control

Nc1cc(Cl)ccc1NCCO
T/C (dose: 33.0 mg/kg/injection, schedule: Q01DX009 (ip), vehicle: saline): 101 % of control | T/C (dose: 66.0 mg/kg/injection, schedule: Q01DX009 (ip), vehicle: saline): 86 % of control | T/C (dose: 132.0 mg/kg/injection, schedule: Q01DX001 (ip), vehicle: saline): 97 % of control and 111 % of control | T/C (dose: 132.0 mg/kg/injection, schedule: Q04DX003 (ip), vehicle: acetone): 97 % of control | T/C [17]: 97 % of control and 105 % of control | T/C (dose: 300.0 mg/kg/injection, schedule: Q01DX001 (ip), vehicle: saline): 100 % of control and 105 % of control

CCC1CC[N-]CC1.CCC1CC[N-]CC1.[Cl][Pt+2]([Cl])([Cl])[Cl]
T/C (dose: 6.25 mg/kg/injection, schedule: Q01DX009 (ip), vehicle: saline): 103 % of control | T/C (dose: 12.5 mg/kg/injection, schedule: Q01DX009 (ip), vehicle: saline): 110 % of control | T/C (dose: 12.5 mg/kg/injection, schedule: Q04DX003 (ip), vehicle: saline): 97 % of control | T/C [3]: 86 % of control | T/C (dose: 25.0 mg/kg/injection, schedule: Q04DX003 (ip), vehicle: saline): 95 % of control | T/C (dose: 50.0 mg/kg/injection, schedule: Q04DX003 (ip), vehicle: saline): 104 % of control

CC(C#N)(Cc1ccccc1)Nc1ccccc1 (centres undefined)
T/C [18]: 102 % of control | T/C (dose: 100.0 mg/kg/injection, schedule: Q01DX009 (ip), vehicle: saline with Tween-80): 101 % of control | T/C (dose: 200.0 mg/kg/injection, schedule: Q01DX009 (ip), vehicle: saline with Tween-80): 96 % of control

Cc1c(Cl)cccc1NC(=O)N(C)Cc1ccccc1
T/C [18]: 109 % of control and 120 % of control | T/C [12]: 104 % of control and 110 % of control | T/C [15]: 97 % of control | T/C [13]: 100 % of control and 104 % of control | T/C [16]: 106 % of control | T/C [14]: 100 % of control and 103 % of control | T/C (dose: 400.0 mg/kg/injection, schedule: Q04DX003 (ip), vehicle: saline with Tween-80): 101 % of control

CN(C)CCN1C(=O)c2ccc3c4c(ccc(c24)C1=O)C(=O)N(CCN(C)C)C3=O
T/C [4]: 96 % of control | T/C (dose: 100.0 mg/kg/injection, schedule: Q01DX001 (ip), vehicle: Klucel (hydroxypropylcellulose) (HPC)): 94 % of control | T/C (dose: 200.0 mg/kg/injection, schedule: Q01DX001 (ip), vehicle: Klucel (hydroxypropylcellulose) (HPC)): 89 % of control

C=C(S(=O)(=O)c1ccccc1)S(=O)(=O)c1ccccc1 (tested in a mixture with another compound)
T/C (dose: 10.0 mg/kg/injection, schedule: Q04DX002 (ip), vehicle: Klucel (hydroxypropylcellulose) (HPC)): 117 % of control | T/C (dose: 20.0 mg/kg/injection, schedule: Q04DX002 (ip), vehicle: Klucel (hydroxypropylcellulose) (HPC)): 102 % of control | T/C (dose: 40.0 mg/kg/injection, schedule: Q04DX002 (ip), vehicle: Klucel (hydroxypropylcellulose) (HPC)): 91 % of control | T/C (dose: 200.0 mg/kg/injection, schedule: Q04DX002 (ip), vehicle: Klucel (hydroxypropylcellulose) (HPC)): 86 % of control
